In patent publication US9877980B2, “Method and composition for treatment or prevention of type 2 diabetes and hyperlipidemia” (Chun-Ching Shih, priority 2016, dated 2018):
Marks after values point to notes of the source that are not given here.

Columns and labels:
Format in all cases: in vivo
[1] = system: C57BL/6J mice on high-fat diet (HFD); experiment: Hepatic lipids in HFD mice; details: 4 weeks
Description: (§1) The following experiment was performed and approved by the guidelines of the Institutional Animal Care and Use Committee of Central Taiwan University of Science and Technology. The 4-week old male C57BL/6J mice (total amount n=63) were purchased from the National Laboratory Animal Breeding and Research Center (Taipei, Taiwan). After acclimatization for one week, all of the mice were divided randomly into the control (CON) group and the high-fat diet (HFD) group. For the following 12 weeks, the CON group (n=9) was kept on a low-fat diet (Diet 12450B, Research Diets, Inc., New Brunswick, N.J., USA), while the HFD group (n=54) was exposed to a high-fat diet (Diet 12451, Research Diets, New Brunswick, N.J., USA). The low-fat diet was composed of protein 20%, carbohydrate 70% and fat 10%, whereas the high-fat diet was composed of protein 20%, carbohydrate 35%, and fat 45% (of total energy, % kcal). After HFD exposure for 8 weeks, the HFD group was further randomly subdivided into 6 groups (n=9 per group) to receive different treatments by oral gavage once daily for four weeks and on HFD. […] The HF+B1, HF+B2, and […] are collectively termed BB-treated HFD groups in the following examples. The CON mice were administered vehicle. After dosing for 4 weeks, the mice were given no food at night and sacrificed after 12 h of fasting on the next day. All of the individual tissues were collected and weighed, and portions were instantly frozen using liquid nitrogen and kept at −80° C. for subsequent target gene analysis. Blood samples (0.8 mL) were collected for analysis of blood parameters.
For hepatic lipid extraction, a 0.375 g liver samples were homogenized with 1 mL distill water for 5 minutes. The dried pellet was finally resuspended in 0.5 mL ethanol and analyzed using a triglycerides kit as used for analyzing the serum lipids set forth above.

PPARα = experiment: Semi-quantitative RT-PCR of liver mRNA: PPARα; details: HFD mice, 4 weeks, vs HF group
Description: as §1, with “For the following 12 weeks, the CON group (n=9) was kept on a low-fat diet (Diet 12450B, Research Diets, Inc., New Brunswick, N.J., USA), while the HFD group (n=54) was exposed to a high-fat diet (Diet 12451, Research Diets, New Brunswick, N.J., USA). The low-fat diet was composed of protein 20%, carbohydrate 70% and fat 10%, whereas the high-fat diet was composed of protein 20%, carbohydrate 35%, and fat 45% (of total energy, % kcal).” left out
Total RNA from liver tissue of mice was isolated with a Trizol Reagent (Molecular Research Center, Inc., Cincinnati, Ohio, USA) according to the manufacturer's instructions. The integrity of the extracted total RNA was examined by 2% agarose gel electrophoresis, and the RNA concentration was determined by the ultraviolet (UV) light absorbency at 260 nm and 280 nm (Spectrophotometer U-2800A, Hitachi). The quality of the RNA was confirmed by ethidium bromide staining of 18S and 28S ribosomal RNA after electrophoresis on 2% agarose gel containing 6% formaldehyde.
Levels of mRNA of genes of interest were quantified by semi-quantitative reverse transcription polymerase chain reaction (RT-PCR). […] PCR products were analyzed by 2% agarose gels and stained with ethidium bromide.

Akt = experiment: Western blotting of phospho-Akt/total Akt in skeletal muscle and liver; details: HFD mice, 4 weeks, vs HF group
Description: as §1
Protein extractions and immunoblots for the determination of phospho-AMPK (Thr^172) and phospho-Akt (Ser^473) proteins in skeletal muscle and liver tissue of mice (n=9) were carried out. About 0.1 g of liver tissue and skeletal muscle was used for the homogenate samples. Samples were powdered under liquid nitrogen and homogenized for 20 seconds in 500 μL buffer containing 20 mM Tris-HCL1 (pH 7.4 at 4° C.), 2% SDS, 5 mM EDTA, 5 mM EGTA, 1 mM DTT, 100 mM NaF, 2 mM sodium vanadate, 0.5 mM phenylmethylsulfonyl fluoride, 10 μg/mL leupeptin, and […] pepstatin. The protein concentration in supernatant was determined with a BCA protein assay kit (Thermo Scientific, Rockford, Ill., USA). 20 μg of proteins were separated by electrophoresis on a polyacrylamide gel 12% (SDS-PAGE) and transferred to a nitrocellulose membrane. The membranes were blocked with 5% slim milk in Tris-buffered saline (TBS)(Amersham BioSciences, Uppsala, Sweden) containing 0.05% Tween-20 (Bio Rad, CA, USA) and incubated overnight at 4° C. with anti-phospho-AMPK (Abcam Inc., Cambridge, Mass., USA) and anti-phospho-Akt (Cell signaling Technology, Inc., Danvers, Mass., USA) rabbit polyclonal antibodies at 1:200 dilution. Subsequently, the membranes were washed three times with TBS containing 0.05% Tween-20 and incubated with secondary antibody anti-rabbit (1:1000) (Jackson ImmunoResearch Laboratories, Inc., PA, USA) for 1 hour. Immunoreactive bands were detected with ECL reagent kit (GE Healthcare BioSciences, Buckinghamshire, UK). The intensity of blotting was analyzed using Alpha Easy FC software (Alpha Innotech Corporation, Randburg, South Africa). Structural proteins GAPDH (Santa Cruz Biotechnology, CA, USA) in the samples were used as the loading control.

OCC1O[C@@H](O[C@@H]2Cc3c(O)cc(O)cc3O[C@@H]2c2ccc(O)c(O)c2)C(O)C(O)[C@@H]1O (single isomer, unassigned; (-)) [compound of formula I, (−)-epicatechin-3-O-β-D-allopyranoside]
Liver lipids Total lipid ([1]; 10 mg/kg/day oral gavage): 71.9 ± 6.5^d mg/g | Liver lipids Triacylglycerol ([1]; 10 mg/kg/day oral gavage): 49.9 ± 8.0^d μmol/g | Liver lipids Total lipid ([1]; 20 mg/kg/day oral gavage): 66.1 ± 6.9^e mg/g | Liver lipids Triacylglycerol ([1]; 20 mg/kg/day oral gavage): 42.8 ± 6.5^f μmol/g | Liver lipids Total lipid ([1]; 40 mg/kg/day oral gavage): 60.2 ± 5.2^f mg/g | Liver lipids Triacylglycerol ([1]; 40 mg/kg/day oral gavage): 40.8 ± 4.6^f μmol/g | liver PPARα mRNA level (PPARα; 10 mg/kg/day oral gavage): enhanced | liver PPARα mRNA level (PPARα; 20 mg/kg/day oral gavage): enhanced | liver PPARα mRNA level (PPARα; 40 mg/kg/day oral gavage): enhanced | expression level of phospho-Akt/total Akt (Akt; liver, 10 mg/kg/day oral gavage): increased | expression level of phospho-Akt/total Akt (Akt; liver, 20 mg/kg/day oral gavage): increased | expression level of phospho-Akt/total Akt (Akt; liver, 40 mg/kg/day oral gavage): increased | expression level of phospho-Akt/total Akt (Akt; skeletal muscle, 10 mg/kg/day oral gavage): increased | expression level of phospho-Akt/total Akt (Akt; skeletal muscle, 20 mg/kg/day oral gavage): increased | expression level of phospho-Akt/total Akt (Akt; skeletal muscle, 40 mg/kg/day oral gavage): increased
